Tested on: participants with SSc-RP
Assay: Scleroderma Health Assessment Questionnaire (SHAQ): disability indices and visual analog scales
Format: in vivo, human
In short: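 Participants with SSc-RP completed the SHAQ at screening and each in-clinic visit. Standard and alternative disability indices (eight categories, 0–3; standard adjusts for aids/assistance) plus Raynaud's VAS on interference over the past 7 days. Reported as absolute change from baseline to end of each dosing period.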

[1] = Modified ITT, Part A, dose Cilnidipine 10 mg, Tadalafil 5 mg, or 10 mg + 5 mg
[2] = PP Population, Part A, sensitivity analysis, cilnidipine 10 mg and/or tadalafil 5 mg as labelled
[3] = Tadalafil 5 mg (N = 4), Modified ITT, Part A
[4] = Tadalafil 5 mg (N = 4), patients with diagnosis of SSc, sensitivity analysis, Modified ITT, Part A
[5] = Tadalafil 5 mg, Day 12, PP Population Part A, SSc patients
[6] = Tadalafil 5 mg, Day 12, PP Population, Part A
[7] = Tadalafil 5 mg, PP Population Part A, SSc patients

CN1CC(=O)N2[C@H](c3ccc4c(c3)OCO4)c3[nH]c4ccccc4c3C[C@@H]2C1=O [Tadalafil, tadalafil]
SHAQ alternative disability index, In Clinic Visit (Day 12), Mean [1]: 0.375 | SHAQ alternative disability index, In Clinic Visit (Day 12), Median [1]: 0.250 | SHAQ Visual Analogue Scale - Breathing Problems: Baseline, Mean [2]: 3.240 | SHAQ Visual Analogue Scale - Breathing Problems: Baseline, Median [2]: 3.100 | SHAQ Visual Analogue Scale - Breathing Problems: Change from Baseline (Day 12), Mean [2]: 0.500 | SHAQ Visual Analogue Scale - Breathing Problems: Change from Baseline (Day 12), Median [2]: 1.050 | SHAQ Visual Analogue Scale - Breathing Problems: In-Clinic Visit (Day 12), Mean [2]: 4.300 | SHAQ Visual Analogue Scale - Breathing Problems: In-Clinic Visit (Day 12), Median [2]: 4.000 | SHAQ Visual Analogue Scale - Breathing Problems: Percent Change from Baseline (Day 12), Mean [2]: −2.66% | SHAQ Visual Analogue Scale - Breathing Problems: Percent Change from Baseline (Day 12), Median [2]: 29.58% | SHAQ Visual Analogue Scale - Finger Ulcers: Baseline, Mean [2]: 1.700 | SHAQ Visual Analogue Scale - Finger Ulcers: Baseline, Median [2]: 0.100 | SHAQ Visual Analogue Scale - Finger Ulcers: Change from Baseline (Day 12), Mean [2]: 0.250 | SHAQ Visual Analogue Scale - Finger Ulcers: Change from Baseline (Day 12), Median [2]: 0.000 | SHAQ Visual Analogue Scale - Finger Ulcers: In-Clinic Visit (Day 12), Mean [2]: 2.325 | SHAQ Visual Analogue Scale - Finger Ulcers: In-Clinic Visit (Day 12), Median [2]: 0.050 | SHAQ Visual Analogue Scale - Finger Ulcers: Percent Change from Baseline (Day 12), Mean [2]: 6.10% | SHAQ Visual Analogue Scale - Finger Ulcers: Percent Change from Baseline (Day 12), Median [2]: 6.10% | SHAQ Visual Analogue Scale - Intestinal Problems: Baseline, Mean [2]: 2.700 | SHAQ Visual Analogue Scale - Intestinal Problems: Baseline, Median [2]: 0.900 | SHAQ Visual Analogue Scale - Intestinal Problems: Change from Baseline (Day 12), Mean [2]: −0.125 | SHAQ Visual Analogue Scale - Intestinal Problems: Change from Baseline (Day 12), Median [2]: 0.000 | SHAQ Visual Analogue Scale - Intestinal Problems: In-Clinic Visit (Day 12), Mean [2]: 3.025 | SHAQ Visual Analogue Scale - Intestinal Problems: In-Clinic Visit (Day 12), Median [2]: 1.450 | SHAQ Visual Analogue Scale - Intestinal Problems: Percent Change from Baseline (Day 12), Mean [2]: −6.92% | SHAQ Visual Analogue Scale - Intestinal Problems: Percent Change from Baseline (Day 12), Median [2]: 0.00% | SHAQ Visual Analogue Scale - Overall Disease Severity: Baseline, Mean [2]: 4.100 | SHAQ Visual Analogue Scale - Overall Disease Severity: Baseline, Median [2]: 5.500 | SHAQ Visual Analogue Scale - Overall Disease Severity: Change from Baseline (Day 12), Mean [2]: 0.625 | SHAQ Visual Analogue Scale - Overall Disease Severity: Change from Baseline (Day 12), Median [2]: 0.700 | SHAQ Visual Analogue Scale - Overall Disease Severity: In-Clinic Visit (Day 12), Mean [2]: 5.600 | SHAQ Visual Analogue Scale - Overall Disease Severity: In-Clinic Visit (Day 12), Median [2]: 6.550 | SHAQ Visual Analogue Scale - Overall Disease Severity: Percent Change from Baseline (Day 12), Mean [2]: 32.49% | SHAQ Visual Analogue Scale - Overall Disease Severity: Percent Change from Baseline (Day 12), Median [2]: 26.79% | SHAQ Visual Analogue Scale - Raynaud's: Baseline, Mean [2]: 4.860 | SHAQ Visual Analogue Scale - Raynaud's: Baseline, Median [2]: 6.400 | SHAQ Visual Analogue Scale - Raynaud's: Change from Baseline (Day 12), Mean [2]: −0.825 | SHAQ Visual Analogue Scale - Raynaud's: Change from Baseline (Day 12), Median [2]: −0.500 | SHAQ Visual Analogue Scale - Raynaud's: In-Clinic Visit (Day 12), Mean [2]: 4.950 | SHAQ Visual Analogue Scale - Raynaud's: In-Clinic Visit (Day 12), Median [2]: 5.200 | SHAQ Visual Analogue Scale - Raynaud's: Percent Change from Baseline (Day 12), Mean [2]: −19.71% | SHAQ Visual Analogue Scale - Raynaud's: Percent Change from Baseline (Day 12), Median [2]: −20.67% | SHAQ Overall Severity: Baseline, Mean [3]: 4.975 | SHAQ Overall Severity: Baseline, Median [3]: 6.000 | SHAQ Overall Severity: Change from Baseline, Mean [3]: 0.625, | SHAQ Overall Severity: Change from Baseline, Median [3]: 0.700 | SHAQ Overall Severity: Day 12, Mean [3]: 5.600 | SHAQ Overall Severity: Day 12, Median [3]: 6.550 | SHAQ Overall Severity: Percent Change from Baseline, Mean [3]: 32.49% | SHAQ Overall Severity: Percent Change from Baseline, Median [3]: 26.790% | SHAQ Standard Disability Index: Baseline, Mean [4]: 0.594 | SHAQ Standard Disability Index: Baseline, Median [4]: 0.625 | SHAQ Standard Disability Index: Change from Baseline, Mean [4]: −0.063 | SHAQ Standard Disability Index: Change from Baseline, Median [4]: −0.063 | SHAQ Standard Disability Index: Day 12, Mean [4]: 0.531 | SHAQ Standard Disability Index: Day 12, Median [4]: 0.563 | SHAQ Standard Disability Index: Percent Change from Baseline, Mean [4]: −9.26% | SHAQ Standard Disability Index: Percent Change from Baseline, Median [4]: −11.11% | SHAQ Visual Analogue Scale - Breathing Problems, Change from Baseline, Mean [5]: 0.500 | SHAQ Visual Analogue Scale - Breathing Problems, Change from Baseline, Median [5]: 1.050 | SHAQ Visual Analogue Scale - Breathing Problems, Percent Change from Baseline, Mean [5]: −2.66% | SHAQ Visual Analogue Scale - Breathing Problems, Percent Change from Baseline, Median [5]: 29.58% | SHAQ Visual Analogue Scale - Finger Ulcers, Change from Baseline, Mean [5]: 0.250 | SHAQ Visual Analogue Scale - Finger Ulcers, Change from Baseline, Median [5]: 0.000 | SHAQ Visual Analogue Scale - Finger Ulcers, Percent Change from Baseline, Mean [5]: 6.10% | SHAQ Visual Analogue Scale - Finger Ulcers, Percent Change from Baseline, Median [5]: 6.10% | SHAQ Visual Analogue Scale - Intestinal Problems, Change from Baseline, Mean [5]: −0.125 | SHAQ Visual Analogue Scale - Intestinal Problems, Change from Baseline, Median [5]: 0.000 | SHAQ Visual Analogue Scale - Intestinal Problems, Percent Change from Baseline, Mean [5]: −6.92% | SHAQ Visual Analogue Scale - Intestinal Problems, Percent Change from Baseline, Median [5]: 0.00% | SHAQ Visual Analogue Scale - Overall Disease Severity, Change from Baseline, Mean [5]: 0.625 | SHAQ Visual Analogue Scale - Overall Disease Severity, Change from Baseline, Median [5]: 0.700 | SHAQ Visual Analogue Scale - Overall Disease Severity, Percent Change from Baseline, Mean [5]: 32.49% | SHAQ Visual Analogue Scale - Overall Disease Severity, Percent Change from Baseline, Median [5]: 26.79% | SHAQ Visual Analogue Scale - Pain, Change from Baseline, Mean [5]: 1.000 | SHAQ Visual Analogue Scale - Pain, Change from Baseline, Median [5]: 0.800 | SHAQ Visual Analogue Scale - Pain, Percent Change from Baseline, Mean [5]: 31.35% | SHAQ Visual Analogue Scale - Pain, Percent Change from Baseline, Median [5]: 10.81% | SHAQ Visual Analogue Scale - Raynaud's, Change from Baseline, Mean [5]: −0.825 | SHAQ Visual Analogue Scale - Raynaud's, Change from Baseline, Median [5]: −0.500 | SHAQ Visual Analogue Scale - Raynaud's, Percent Change from Baseline, Mean [5]: −19.71% | SHAQ Visual Analogue Scale - Raynaud's, Percent Change from Baseline, Median [5]: −20.67% | SHAQ Alternative Disability Index: Change from Baseline, Mean [6]: −0.094 | SHAQ Alternative Disability Index: Change from Baseline, Median [6]: −0.125 | SHAQ Alternative Disability Index: In-Clinic Visit (Day 12), Mean [6]: 0.375 | SHAQ Alternative Disability Index: In-Clinic Visit (Day 12), Median [6]: 0.250 | SHAQ Alternative Disability Index: Percent Change from Baseline, Mean [6]: −43.70% | SHAQ Alternative Disability Index: Percent Change from Baseline, Median [6]: −20.00% | SHAQ Standard Disability Index: Change from Baseline, Mean [6]: −0.063 | SHAQ Standard Disability Index: Change from Baseline, Median [6]: −0.063 | SHAQ Standard Disability Index: In-Clinic Visit (Day 12), Mean [6]: 0.531 | SHAQ Standard Disability Index: In-Clinic Visit (Day 12), Median [6]: 0.563 | SHAQ Standard Disability Index: Percent Change from Baseline, Mean [6]: −9.26% | SHAQ Standard Disability Index: Percent Change from Baseline, Median [6]: −11.11% | SHAQ Visual Analogue Scale - Pain: Change from Baseline, Mean [6]: 1.000 | SHAQ Visual Analogue Scale - Pain: Change from Baseline, Median [6]: 0.800 | SHAQ Visual Analogue Scale - Pain: In-Clinic Visit (Day 12), Mean [6]: 5.300 | SHAQ Visual Analogue Scale - Pain: In-Clinic Visit (Day 12), Median [6]: 5.850 | SHAQ Visual Analogue Scale - Pain: Percent Change from Baseline, Mean [6]: 31.35% | SHAQ Visual Analogue Scale - Pain: Percent Change from Baseline, Median [6]: 10.81% | SHAQ Visual Analogue Scale - Breathing Problems, In-Clinic Visit (Day 12), Mean [7]: 4.300 | SHAQ Visual Analogue Scale - Breathing Problems, In-Clinic Visit (Day 12), Median [7]: 4.000 | SHAQ Visual Analogue Scale - Finger Ulcers, In-Clinic Visit (Day 12), Mean [7]: 2.325 | SHAQ Visual Analogue Scale - Finger Ulcers, In-Clinic Visit (Day 12), Median [7]: 0.050 | SHAQ Visual Analogue Scale - Intestinal Problems, In-Clinic Visit (Day 12), Mean [7]: 3.025 | SHAQ Visual Analogue Scale - Intestinal Problems, In-Clinic Visit (Day 12), Median [7]: 1.450 | SHAQ Visual Analogue Scale - Overall Disease Severity, In-Clinic Visit (Day 12), Mean [7]: 5.600 | SHAQ Visual Analogue Scale - Overall Disease Severity, In-Clinic Visit (Day 12), Median [7]: 6.550 | SHAQ Visual Analogue Scale - Pain, In-Clinic Visit (Day 12), Mean [7]: 5.300 | SHAQ Visual Analogue Scale - Pain, In-Clinic Visit (Day 12), Median [7]: 5.850 | SHAQ Visual Analogue Scale - Raynaud's, In-Clinic Visit (Day 12), Mean [7]: 4.950 | SHAQ Visual Analogue Scale - Raynaud's, In-Clinic Visit (Day 12), Median [7]: 5.200

From US20240358693A1, “METHODS OF TREATING PAIN” (Aisa Pharma, Inc., priority 2023, published 2024)
